Measured values reported in article PMC10590383, “Repurposing conformational changes in ANL superfamily enzymes to rapidly generate biosensors for organic and amino acids” (Nature Communications, 2023).

Tests used:
Format in all cases: biochemical
Settings in all cases: n = 3
GECFINDER-Phe3 = molecular target: T1, GECFINDER-Phe3 (Aneurinibacillus migulanus, UniProt P0C061); assay: Fluorescence dose-response of purified […]-Phe3 with phenylalanine in 100 mM Tris at pH 6.5, room temperature, 1 mM ATP, 2.5 mM MgCl2.
T1 construct: gene grsA; GrsA-PheA-PCP; cpEGFP inserted in hinge B, linkers VF-QS
T1 sequence (P0C061 1-617): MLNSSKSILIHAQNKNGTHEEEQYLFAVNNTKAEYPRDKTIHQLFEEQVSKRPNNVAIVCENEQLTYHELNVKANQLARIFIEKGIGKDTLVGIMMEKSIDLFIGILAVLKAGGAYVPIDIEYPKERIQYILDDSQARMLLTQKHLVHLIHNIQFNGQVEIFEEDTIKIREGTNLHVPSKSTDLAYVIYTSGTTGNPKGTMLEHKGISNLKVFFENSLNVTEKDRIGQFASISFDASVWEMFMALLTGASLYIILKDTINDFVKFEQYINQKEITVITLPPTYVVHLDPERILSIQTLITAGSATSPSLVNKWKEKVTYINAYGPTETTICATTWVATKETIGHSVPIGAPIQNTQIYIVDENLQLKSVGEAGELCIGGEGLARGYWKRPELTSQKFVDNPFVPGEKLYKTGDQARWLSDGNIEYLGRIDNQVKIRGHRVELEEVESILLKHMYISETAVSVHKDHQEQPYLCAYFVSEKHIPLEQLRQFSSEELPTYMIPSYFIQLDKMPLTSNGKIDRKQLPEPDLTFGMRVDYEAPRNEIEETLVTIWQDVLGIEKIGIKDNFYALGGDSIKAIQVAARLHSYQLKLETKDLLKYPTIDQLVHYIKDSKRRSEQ
Excerpt: As cpEGFP is sensitive to pH, we conducted a dose-response curve and fluorescence intensity analysis of […]-Phe3 at varying pH levels. […] In addition, we expanded the range of ligand-binding domains (LBDs) applicable to […] and attempted optimization of insertion sites for cpEGFP with limited success. Please refer to Supplemental Note 1 for detailed information.
The study conducted dose–response curve, substrate specificity, and fluorescent spectrum analyses in 100-mM Tris buffer (pH = 7.5), while pH stability experiments were performed in 100-mM Tris buffer at three different pH values (6.5, 7.5, and 8.5) at room temperature. […] Fluorescent signals were detected using a Microplate Reader (Synergy H4, Bio Tek) at an excitation/emission wavelength of 460 nm/510 nm or 480 nm/510 nm. The dose-response curve was determined immediately after the addition of the analyte. The total duration of the measurement was 15 min, with readings taken at one-minute intervals. The dose-response curve was plotted using the fluorescence values obtained after achieving stability in the fluorescence signal. […] The thermal stability of […] was analyzed using the UNcle multifunctional protein stability analysis system. […] Absolute fluorescence quantum yields were measured using an absolute photoluminescence quantum yield spectrometer (FS5, Edinburgh). […]

GECFINDER-Leu4 = molecular target: T2, GECFINDER-Leu4 (Aneurinibacillus migulanus, UniProt P0C061, A301G/I277L/S447N/T278L); assay: Fluorescence dose-response of purified binding-pocket-engineered sensors (0.75 uM) in 100 mM Tris-HCl pH 7.5, room temperature, 1 mM ATP, 2.5 mM MgCl2, excitation 460 or 480 nm, emission 510 nm; logistic five-parameter fit.
T2 construct: gene grsA
Procedure: (§1) Fig. 4 Engineering ligand specificity of GrsA-PheA for generating […]s. a The selectivity-conferring code of Phe and Leu A domains. b–f Dose–response curve of purified […]s with increasing concentrations of ligands in 100 mM Tris-HCl buffer (pH=7.5). All data shown are means ± S.D. (n = 3 biologically independent samples). g A series of […] reactions was tested to show the […]’s specificity with 20 proteinogenic amino acids. The values on the heatmap represent the ΔF/F0 value normalized to each […]’s maximal ΔF/F0 value ((ΔF/F0)/maximal ΔF/F0). The concentrations of 20 amino acids were 100 μM. The color indicates the average value of three independent biological replicates after 15 min. All data shown are means ± S.D. (n = 3 biologically independent samples). Source data are provided as a Source data file.
(§2) The study conducted dose–response curve, substrate specificity, and fluorescent spectrum analyses in 100-mM Tris buffer (pH = 7.5), while pH stability experiments were performed in 100-mM Tris buffer at three different pH values (6.5, 7.5, and 8.5) at room temperature. […] protein at a concentration of 0.75 μM, various small molecule concentrations, 1 mM ATP, and 2.5 mM MgCl2 were used in the experiments. Fluorescent signals were detected using a Microplate Reader (Synergy H4, Bio Tek) at an excitation/emission wavelength of 460 nm/510 nm or 480 nm/510 nm. The dose-response curve was determined immediately after the addition of the analyte. The total duration of the measurement was 15 min, with readings taken at one-minute intervals. The dose-response curve was plotted using the fluorescence values obtained after achieving stability in the fluorescence signal. The dose-response curves were fitted using the logistic model LOGISTIC5 available in Origin 2021, which could provide a more adequate fit to asymmetric dose-response data[62],[63]. Excitation spectra were scanned from 300 to 540 nm with a step size of 5 nm, and the emission wavelength was set to 560 nm. Emission spectra were scanned from 470 to 700 nm with a step size of 5 nm, and the excitation wavelength was set to 450 nm. The thermal stability of […] was analyzed using the UNcle multifunctional protein stability analysis system. Measurements were performed in 20 mM MOPS buffer with 2 mM DTT at a sample concentration of 1 mg/mL. Absolute fluorescence quantum yields were measured using an absolute photoluminescence quantum yield spectrometer (FS5, Edinburgh).

GECFINDER-Leu2 = molecular target: T3, GECFINDER-Leu2 (Aneurinibacillus migulanus, UniProt P0C061, A301G/I277L/T278L); assay: as above
T3 construct: gene grsA
Procedure: as §1, §2

GECFINDER-Tyr = molecular target: T4, GECFINDER-Tyr (Aneurinibacillus migulanus, UniProt P0C061, W239S); assay: as above
T4 construct: gene grsA
Procedure: as §1, §2

GECFINDER-Leu3 = molecular target: T5, GECFINDER-Leu3 (Aneurinibacillus migulanus, UniProt P0C061, A301G/S447N/T278L); assay: as above
T5 construct: gene grsA
Procedure: as §1, §2

GECFINDER-SβF = assay: as above
Procedure: as §1, §2

Structure (SMILES): N[C@@H](Cc1ccccc1)C(=O)O [Phe, phenylalanine]
- EC50 (GECFINDER-Phe3): 2030 nM
- EC50 (GECFINDER-Leu4): 158 ± 22.6 µM
- EC50 (GECFINDER-Leu2): 606 ± 407 µM
- EC50 (GECFINDER-Tyr): 258 ± 37.3 µM
- EC50 (GECFINDER-Leu3): 392 ± 51.8 µM
- EC50 (GECFINDER-SβF): 234 ± 23.7 µM
